Values after ≈ are worked out from the molar mass of the structure shown.
Experiments:
[1] = test system: Human immunodeficiency virus 1; experiment: Antiviral activity against HIV-1 infected in MT4 cells assessed as reduction in virus-induced cytopathic effect preincubated for 1 hr followed by viral infection and measured after 5 days by XTT assay; assay type: functional, organism-based; settings: Human immunodeficiency virus 1, MT4
[2] = Drug uptake in human CCRF-CEM cells assessed as released tenofovir level at 50 uM after 45 mins by ECHO-MS analysis; assay type: ADME, cell-based; settings: 0.75 h
[3] = Cytotoxicity against in human MT4 cells after 5 days by XTT assay; assay type: cell-based; settings: time 5 day
[4] = target: T1, Lysosomal protective protein (Homo sapiens) (UniProt P10619); experiment: Substrate activity at cathepsin A (unknown origin) at 30 uM after 30 mins
T1 sequence (whole entry): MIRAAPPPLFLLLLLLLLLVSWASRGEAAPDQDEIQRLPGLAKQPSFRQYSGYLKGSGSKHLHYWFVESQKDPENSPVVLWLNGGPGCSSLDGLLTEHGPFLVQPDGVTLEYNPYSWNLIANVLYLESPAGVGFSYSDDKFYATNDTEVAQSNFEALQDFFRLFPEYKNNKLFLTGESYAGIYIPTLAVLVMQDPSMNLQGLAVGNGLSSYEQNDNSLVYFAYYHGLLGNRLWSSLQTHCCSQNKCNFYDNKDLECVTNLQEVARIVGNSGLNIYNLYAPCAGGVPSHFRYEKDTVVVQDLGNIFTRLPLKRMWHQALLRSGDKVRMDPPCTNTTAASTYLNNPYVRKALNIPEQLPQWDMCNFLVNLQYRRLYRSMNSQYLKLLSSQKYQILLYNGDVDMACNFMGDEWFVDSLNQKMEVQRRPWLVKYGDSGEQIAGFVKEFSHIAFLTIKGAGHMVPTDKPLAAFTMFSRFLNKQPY

[5] = Drug uptake in human CCRF-CEM cells assessed as intracellular intact prodrug level at 50 uM after 45 mins by ECHO-MS analysis; assay type: ADME, cell-based; settings: 0.75 h
[6] = Drug metabolism assessed as M1 metabolite formation; assay type: ADME
[7] = Drug metabolism assessed as M12 metabolite formation; assay type: ADME
[8] = Drug metabolism assessed as M9 metabolite formation; assay type: ADME
[9] = Drug metabolism assessed as M5 metabolite formation; assay type: ADME
[10] = Drug metabolism assessed as M11 metabolite formation; assay type: ADME
[11] = Stability of compound in pooled human plasma assessed as half life at 5 uM measured for 120 to 240 mins by ECHO-MS analysis; assay type: ADME, cell-free; settings: time 120-240 min
[12] = Stability of compound in pooled human plasma assessed as compound remaining at 5 uM measured for 120 to 240 mins by ECHO-MS analysis; assay type: ADME, cell-free; settings: time 120-240 min, read-out: Stability
[13] = Chemical stability of compound in pH 4.5 citrate buffer at 25 uM after 24 hrs by HPLC analysis; assay type: physicochemical; settings: pH 4.5, 24 h
[14] = Drug metabolism in human liver microsomes assessed as formation of metabolite 1; assay type: ADME, Microsome
[15] = Chemical stability of compound in pH 1.5 NaCl-HCl buffer at 25 uM after 24 hrs by HPLC analysis; assay type: physicochemical; settings: pH 1.5, 24 h
[16] = Chemical stability of compound in pH 10 NaOH-glycin buffer at 25 uM after 24 hrs by HPLC analysis; assay type: physicochemical; settings: pH 10, 24 h
[17] = Stability of compound in pooled human hepatic microsomes assessed as compound remaining at 5 uM measured upto 30 mins in presence of NADPH by ECHO-MS analysis; assay type: ADME, Microsome; settings: pooled liver microsomes, read-out: Stability
[18] = Solubility of compound in water at 25 uM after 24 hrs by HPLC analysis; assay type: physicochemical
[19] = Selectivity index, ratio of CC50 for human MT-4 cells to EC50 for HIV-1 infected in MT-4 cells; assay type: toxicity, cell-based; settings: read-out: Ratio CC50/EC50

Structure (SMILES)	EC50 [1] [nM]	Drug uptake [2] [pmol]	CC50 at 120 h [3] [µM]	Activity [4] [pmol/min/mg]	Drug uptake [5] [pmol]	Drug metabolism [6]	Drug metabolism [7]	Drug metabolism [8]	Drug metabolism [9]	Drug metabolism [10]	half-life at 5 µM [11] [h]	remaining at 5 µM [12] [%]	Stability [13]	Drug metabolism [14]	Stability [15]	Stability [16]	remaining at 0.5 h, 5 µM [17] [%]	solubility at 24 h, 25 µM [18] [µM]	selectivity ratio [19]
CC(C)OC(=O)[C@H](C)N[P@@](=O)(CO[C@H](C)Cn1cnc2c(N)ncnc21)Oc1ccc(C[C@H](NCCCc2ccccc2)C(=O)CC2CCCC2)cc1	9.6	50.12	7.3	10.2	266.22	Metabolite_Detected	Metabolite_Detected	Metabolite_Detected	Metabolite_Detected	Metabolite_Detected	–	–	–	–	–	–	–	–	–
CC(C)OC(=O)[C@H](C)N[P@](=O)(CO[C@H](C)Cn1cnc2c(N)ncnc21)Oc1ccc(C[C@H](NC(=O)OCc2ccccc2)C(=O)OC2CCCC2)cc1	0.07	73.7	10	–	0.19	–	–	–	–	–	9.63	75	Stable	Metabolite_Detected	Unstable	Unstable	0.01	53.5 (≈ 41 µg/mL)	143000

Reference: ChEMBL document CHEMBL4840358, “Discovery of Modified Amidate (ProTide) Prodrugs of Tenofovir with Enhanced Antiviral Properties” (J Med Chem, 2021)
